Results: patent EP4691468A1, “PHARMACEUTICAL COMPOSITION FOR TREATING INFLAMMATORY BOWEL DISEASE” (EA Pharma Co., Ltd., priority 2023, dated 2024)

What was measured:
[1] = PK Simulation Analysis 1 by superposition method (Phoenix WinNonlin NPS); design: species or system human
Description: The plasma concentration profile of Compound (2) on day 10 of repeated administration was predicted using the superposition method implemented in the Nonparametric Superposition (NPS) tool of the analysis software Phoenix WinNonlin, applying the single-dose results (Certara L.P.) (Fig. 4). Table 5: Predicted Plasma Concentration (ng/mL) of Compound (2) on Day 10 of Repeated Administration

[2] = Phase 1 single-dose administration study: plasma concentration of Compound (2) by LC/MS/MS; conditions: oral, single dose
Description: A phase 1 clinical trial was conducted to evaluate the safety, tolerability, and pharmacokinetics of Compound (1) when orally administered to healthy adult males.
This clinical trial was a single-center, randomized, double-blind, placebo-controlled, single and multiple ascending dose study with the primary objective of evaluating the safety and tolerability of Compound (1) when orally administered to healthy adult males.
The subjects in each cohort consisted of 8 people, of which 6 were assigned to Compound (1) and 2 were assigned to placebo, and they were administered the drug.
The plasma concentration of Compound (2) was measured using a validated measurement method. Specifically, plasma was separated from collected blood and processed, and then the plasma concentration was measured by an LC/MS/MS apparatus.
Compound (1) was orally administered once to 6 healthy adult males per dose and dosage form at doses of 6, 20, 100, 200, and 400 mg in the form of hard capsules (CAP), liquid self-emulsifying drug delivery system (L-SEDDS), or soft capsule self-emulsifying drug delivery system (C-SEDDS).

estimated trough value on the 10th day of repeated administration ([1]; 50 mg, 2.5 times the predicted 20 mg value): 2.03 ng/mL | Average Plasma Concentrations of Compound (2) after Single-Dose Administration ([2]; Compound (1) 6 mg CAP, Time 1 h): 0.121 ng/mL | Average Plasma Concentrations of Compound (2) after Single-Dose Administration ([2]; Compound (1) 6 mg CAP, Time 1.5 h): 0.350 ng/mL | Average Plasma Concentrations of Compound (2) after Single-Dose Administration ([2]; Compound (1) 6 mg CAP, Time 2 h): 0.448 ng/mL | Average Plasma Concentrations of Compound (2) after Single-Dose Administration ([2]; Compound (1) 6 mg CAP, Time 2.5 h): 0.536 ng/mL | Average Plasma Concentrations of Compound (2) after Single-Dose Administration ([2]; Compound (1) 6 mg CAP, Time 3 h): 0.554 ng/mL | Average Plasma Concentrations of Compound (2) after Single-Dose Administration ([2]; Compound (1) 6 mg CAP, Time 4 h): 0.590 ng/mL | Average Plasma Concentrations of Compound (2) after Single-Dose Administration ([2]; Compound (1) 6 mg CAP, Time 5 h): 0.424 ng/mL | Average Plasma Concentrations of Compound (2) after Single-Dose Administration ([2]; Compound (1) 6 mg CAP, Time 6 h): 0.313 ng/mL | Average Plasma Concentrations of Compound (2) after Single-Dose Administration ([2]; Compound (1) 6 mg CAP, Time 7 h): 0.209 ng/mL | Average Plasma Concentrations of Compound (2) after Single-Dose Administration ([2]; Compound (1) 6 mg CAP, Time 8 h): 0.127 ng/mL | Average Plasma Concentrations of Compound (2) after Single-Dose Administration ([2]; Compound (1) 6 mg CAP, Time 12 h): 0.075 ng/mL | Average Plasma Concentrations of Compound (2) after Single-Dose Administration ([2]; Compound (1) 20 mg CAP, Time 1 h): 0.211 ng/mL | Average Plasma Concentrations of Compound (2) after Single-Dose Administration ([2]; Compound (1) 20 mg CAP, Time 1.5 h): 0.585 ng/mL | Average Plasma Concentrations of Compound (2) after Single-Dose Administration ([2]; Compound (1) 20 mg CAP, Time 2 h): 0.768 ng/mL | Average Plasma Concentrations of Compound (2) after Single-Dose Administration ([2]; Compound (1) 20 mg CAP, Time 2.5 h): 1.023 ng/mL | Average Plasma Concentrations of Compound (2) after Single-Dose Administration ([2]; Compound (1) 20 mg CAP, Time 3 h): 0.926 ng/mL | Average Plasma Concentrations of Compound (2) after Single-Dose Administration ([2]; Compound (1) 20 mg CAP, Time 4 h): 0.817 ng/mL | Average Plasma Concentrations of Compound (2) after Single-Dose Administration ([2]; Compound (1) 20 mg CAP, Time 5 h): 0.702 ng/mL | Average Plasma Concentrations of Compound (2) after Single-Dose Administration ([2]; Compound (1) 20 mg CAP, Time 6 h): 0.567 ng/mL | Average Plasma Concentrations of Compound (2) after Single-Dose Administration ([2]; Compound (1) 20 mg CAP, Time 7 h): 0.533 ng/mL | Average Plasma Concentrations of Compound (2) after Single-Dose Administration ([2]; Compound (1) 20 mg CAP, Time 8 h): 0.507 ng/mL | Average Plasma Concentrations of Compound (2) after Single-Dose Administration ([2]; Compound (1) 20 mg CAP, Time 12 h): 0.351 ng/mL | Average Plasma Concentrations of Compound (2) after Single-Dose Administration ([2]; Compound (1) 20 mg CAP, Time 15 h): 0.338 ng/mL | Average Plasma Concentrations of Compound (2) after Single-Dose Administration ([2]; Compound (1) 20 mg CAP, Time 21 h): 0.339 ng/mL | Average Plasma Concentrations of Compound (2) after Single-Dose Administration ([2]; Compound (1) 20 mg CAP, Time 24 h): 0.245 ng/mL | Average Plasma Concentrations of Compound (2) after Single-Dose Administration ([2]; Compound (1) 100 mg CAP, Time 1 h): 0.556 ng/mL | Average Plasma Concentrations of Compound (2) after Single-Dose Administration ([2]; Compound (1) 100 mg CAP, Time 1.5 h): 1.274 ng/mL | Average Plasma Concentrations of Compound (2) after Single-Dose Administration ([2]; Compound (1) 100 mg CAP, Time 2 h): 1.864 ng/mL | Average Plasma Concentrations of Compound (2) after Single-Dose Administration ([2]; Compound (1) 100 mg CAP, Time 2.5 h): 2.343 ng/mL | Average Plasma Concentrations of Compound (2) after Single-Dose Administration ([2]; Compound (1) 100 mg CAP, Time 3 h): 2.246 ng/mL | Average Plasma Concentrations of Compound (2) after Single-Dose Administration ([2]; Compound (1) 100 mg CAP, Time 4 h): 2.465 ng/mL | Average Plasma Concentrations of Compound (2) after Single-Dose Administration ([2]; Compound (1) 100 mg CAP, Time 5 h): 2.331 ng/mL | Average Plasma Concentrations of Compound (2) after Single-Dose Administration ([2]; Compound (1) 100 mg CAP, Time 6 h): 1.906 ng/mL | Average Plasma Concentrations of Compound (2) after Single-Dose Administration ([2]; Compound (1) 100 mg CAP, Time 7 h): 1.498 ng/mL | Average Plasma Concentrations of Compound (2) after Single-Dose Administration ([2]; Compound (1) 100 mg CAP, Time 8 h): 1.357 ng/mL | Average Plasma Concentrations of Compound (2) after Single-Dose Administration ([2]; Compound (1) 100 mg CAP, Time 12 h): 1.276 ng/mL | Average Plasma Concentrations of Compound (2) after Single-Dose Administration ([2]; Compound (1) 100 mg CAP, Time 15 h): 1.135 ng/mL | Average Plasma Concentrations of Compound (2) after Single-Dose Administration ([2]; Compound (1) 100 mg CAP, Time 21 h): 1.046 ng/mL | Average Plasma Concentrations of Compound (2) after Single-Dose Administration ([2]; Compound (1) 100 mg CAP, Time 24 h): 1.030 ng/mL | Average Plasma Concentrations of Compound (2) after Single-Dose Administration ([2]; Compound (1) 200 mg C-SEDDS, Time 0.5 h): Below quantitation limit | Average Plasma Concentrations of Compound (2) after Single-Dose Administration ([2]; Compound (1) 200 mg C-SEDDS, Time 1 h): Below quantitation limit | Average Plasma Concentrations of Compound (2) after Single-Dose Administration ([2]; Compound (1) 200 mg C-SEDDS, Time 1.5 h): 2.14 ng/mL | Average Plasma Concentrations of Compound (2) after Single-Dose Administration ([2]; Compound (1) 200 mg C-SEDDS, Time 2 h): 6.68 ng/mL | Average Plasma Concentrations of Compound (2) after Single-Dose Administration ([2]; Compound (1) 200 mg C-SEDDS, Time 2.5 h): 10.5 ng/mL | Average Plasma Concentrations of Compound (2) after Single-Dose Administration ([2]; Compound (1) 200 mg C-SEDDS, Time 3 h): 13.4 ng/mL | Average Plasma Concentrations of Compound (2) after Single-Dose Administration ([2]; Compound (1) 200 mg C-SEDDS, Time 4 h): 14.2 ng/mL | Average Plasma Concentrations of Compound (2) after Single-Dose Administration ([2]; Compound (1) 200 mg C-SEDDS, Time 5 h): 10.4 ng/mL
Compound: Cc1cc(=O)n(-c2ccc(C[C@H](NC(=O)c3cc(F)c(NS(=O)(=O)c4ccc(NC(=O)C(C)(C)C)cc4)cc3F)C(=O)O)cn2)c(=O)n1C [Compound (2)]
Judgment Trough Value ([1]; estimated, repeated administration at 50 mg, 10th day): B (IC50 (1.9 ng/mL) or higher and less than IC90 (6.9 ng/mL))
